In patent US12612368B2 (Remedy Plan, Inc., priority 2019, dated 2026):
Read-outs that look alike come from different tables or passages of the source.

Legend:
[1] = tested on: MV-4-11 cells; experiment: Cell viability in MV-4-11 cells (CellTiter Glo2); assay type: cell-based; conditions: Homo sapiens, MV4-11, 96 h, 8-point dose response, 4 days
Experimental: Approximately 10,000 MV-4-11 cells per well of a 96-well plate were treated with DMSO (no drug control) or each compound in Tables E1 and E2 in an 8-point dose response for 4 days, Cell viability was measured using CellTiter Glo2. The ICse of each compound was determined using CDD Vault.

[2] = molecular target: T1, NAMPT (Homo sapiens, UniProt P43490); experiment: NAMPT Activity Assay (Abcam #ab221819); assay type: biochemical; conditions: purified NAMPT, two-step reaction, OD450 nm; percent inhibition vs no drug; compound concentration not stated
T1 construct: purchased Abcam ab221819

[3] = CellTiter Glo2 (Table E2), read-out: MV-4-11 Cell Viability, MV-4-11 IC50

T1 sequence (P43490 whole entry): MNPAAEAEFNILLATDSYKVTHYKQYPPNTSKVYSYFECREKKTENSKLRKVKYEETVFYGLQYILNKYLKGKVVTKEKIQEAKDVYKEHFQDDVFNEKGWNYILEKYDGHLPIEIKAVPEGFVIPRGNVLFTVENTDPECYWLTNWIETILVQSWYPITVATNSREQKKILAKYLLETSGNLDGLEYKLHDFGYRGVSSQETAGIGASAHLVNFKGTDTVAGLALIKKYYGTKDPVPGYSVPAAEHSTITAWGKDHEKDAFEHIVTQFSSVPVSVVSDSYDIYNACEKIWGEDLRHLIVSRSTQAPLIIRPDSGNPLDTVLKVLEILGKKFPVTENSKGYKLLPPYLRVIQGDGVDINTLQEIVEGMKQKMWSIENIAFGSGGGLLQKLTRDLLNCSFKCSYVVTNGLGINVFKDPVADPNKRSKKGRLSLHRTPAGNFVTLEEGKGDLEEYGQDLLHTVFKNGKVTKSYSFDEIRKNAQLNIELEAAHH

| SMILES | IC50 [1, 3] [µM] | NAMPT Inhibition Code [2] | IC50 ([1]; CellTiter Glo2 (Table E1), read-out: MV-4-11 IC50) [µM] |
| --- | --- | --- | --- |
| CC(=O)N(CC1CC1)c1ccc(-c2ccc(C(=O)Nc3ccncc3)cn2)cc1Cl [Compound I-684, 6-[4-[Acetyl(cyclopropylmethyl)amino]-3-chloro-phenyl]-N-(4-pyridyl)pyridine-3-carboxamide] | 0.341 | A (A = <33% inhibition) |  |
| CC(=O)N(CC1COC1)c1ccc(-c2ccc(C(=O)NCc3cccnc3)cn2)cc1 [Compound I-447, 6-[4-[acetyl(oxetan-3-ylmethyl)amino]phenyl]-N-(3-pyridylmethyl)pyridine-3-carboxamide] | 0.493 | A (A = <33% inhibition) |  |
| CC(=O)N(CC1CC1)c1ccc(-c2ccc(C(=O)NCc3ccncc3)cn2)cc1Cl [Compound I-676, 6-[4-[Acetyl(cyclopropylmethyl)amino]-3-chloro-phenyl]-N-(4-pyridylmethyl)pyridine-3-carboxamide] | > 0.997 | A (A = <33% inhibition) |  |
| CCN(C(C)=O)c1ccc(-c2ccc(C(=O)NCc3cccnc3C)cn2)cc1Cl [Compound I-444, 6-[4-[acetyl(ethyl)amino]-3-chloro-phenyl]-N-[(2-methyl-3-pyridyl)methyl]pyridine-3-carboxamide] |  | A (A = <33% inhibition) | 1.82 |
| CC(=O)N(CC(C)C)c1ccc(-c2ccc(C(=O)NCc3cccnc3)cn2)cc1C [Compound I-594, 6-[4-[Acetyl(isobutyl)amino]-3-methyl-phenyl]-N-(3-pyridylmethyl)pyridine-3-carboxamide] | < 0.00664 | C (C = ≥66% inhibition) |  |
| CC(=O)N(CCC(F)(F)F)c1ccc(-c2ccc(C(=O)NCc3cccnc3)cn2)cc1 [Compound I-482, 6-[4-[Acetyl(3,3,3-trifluoropropyl)amino]phenyl]-N-(3-pyridylmethyl)pyridine-3-carboxamide] | 0.226 | B (B = ≥33 to <66% inhibition) |  |
| CCC(=O)N(C)c1ccc(-c2ccc(C(=O)NCc3cccnc3)cn2)cc1 [Compound I-331, 6-[4-[Methyl(propanoyl)amino]phenyl]-N-(3-pyridylmethyl)pyridine-3-carboxamide] | 0.436 | A (A = <33% inhibition) |  |
| CC(=O)N(CC1CC1)c1ccc(-c2ccc(C(=O)NCc3cccnc3F)cn2)cc1Cl [Compound I-685, 6-[4-[Acetyl(cyclopropylmethyl)amino]-3-chloro-phenyl]-N-[(2-fluoro-3-pyridyl)methyl]pyridine-3-carboxamide] | 0.34 | C (C = ≥66% inhibition) |  |
| CC(=O)N(C)c1ccc(-c2ccc(C(=O)NCc3cccnc3)cn2)cc1C#N [Compound I-663, 6-[4-[Acetyl(methyl)amino]-3-cyano-phenyl]-N-(3-pyridylmethyl)pyridine-3-carboxamide] | 1.7 | B (B = ≥33 to <66% inhibition) |  |
| CC(=O)N(c1ccc(-c2ccc(C(=O)NCc3cccnc3)cc2)cc1C)C(C)C [Compound I-624, 4-[4-[Acetyl(isopropyl)amino]-3-methyl-phenyl]-N-(3-pyridylmethyl)benzamide] | 0.04 | B (B = ≥33 to <66% inhibition) |  |
